# Data: the NIST ThermoML archive (doi:10.1016/j.jct.2009.07.002)
# Numbers after ± are expanded uncertainties.
# Assay: isobaric coefficient of expansion
# Details: Liquid, DSC with Pressure Shift
smiles,measurement,setting,value
CCCO [propan-1-ol],isobaric coefficient of expansion,"278.15 K, 5000 kPa",0.000927 ± 3.9e-05 1/K
same,isobaric coefficient of expansion,"278.15 K, 10000 kPa",0.000901 ± 3.8e-05 1/K
same,isobaric coefficient of expansion,"278.15 K, 15000 kPa",0.000883 ± 3.7e-05 1/K
same,isobaric coefficient of expansion,"278.15 K, 20000 kPa",0.000868 ± 3.7e-05 1/K
same,isobaric coefficient of expansion,"278.15 K, 25000 kPa",0.00085 ± 3.6e-05 1/K
same,isobaric coefficient of expansion,"278.15 K, 30000 kPa",0.000834 ± 3.5e-05 1/K
same,isobaric coefficient of expansion,"278.15 K, 35000 kPa",0.000818 ± 3.5e-05 1/K
same,isobaric coefficient of expansion,"278.15 K, 40000 kPa",0.000803 ± 3.4e-05 1/K
same,isobaric coefficient of expansion,"278.15 K, 45000 kPa",0.00079 ± 3.4e-05 1/K
same,isobaric coefficient of expansion,"278.15 K, 50000 kPa",0.000777 ± 3.3e-05 1/K
same,isobaric coefficient of expansion,"278.15 K, 55000 kPa",0.000767 ± 3.3e-05 1/K
same,isobaric coefficient of expansion,"288.15 K, 5000 kPa",0.000947 ± 4e-05 1/K
same,isobaric coefficient of expansion,"288.15 K, 10000 kPa",0.000923 ± 3.9e-05 1/K
same,isobaric coefficient of expansion,"288.15 K, 15000 kPa",0.000902 ± 3.8e-05 1/K
same,isobaric coefficient of expansion,"288.15 K, 20000 kPa",0.000884 ± 3.8e-05 1/K
same,isobaric coefficient of expansion,"288.15 K, 25000 kPa",0.000867 ± 3.7e-05 1/K
same,isobaric coefficient of expansion,"288.15 K, 30000 kPa",0.000848 ± 3.6e-05 1/K
same,isobaric coefficient of expansion,"288.15 K, 35000 kPa",0.00083 ± 3.5e-05 1/K
same,isobaric coefficient of expansion,"288.15 K, 40000 kPa",0.000816 ± 3.5e-05 1/K
same,isobaric coefficient of expansion,"288.15 K, 45000 kPa",0.000801 ± 3.4e-05 1/K
same,isobaric coefficient of expansion,"288.15 K, 50000 kPa",0.000786 ± 3.3e-05 1/K
same,isobaric coefficient of expansion,"288.15 K, 55000 kPa",0.000775 ± 3.3e-05 1/K
same,isobaric coefficient of expansion,"298.15 K, 5000 kPa",0.000967 ± 4.1e-05 1/K
same,isobaric coefficient of expansion,"298.15 K, 10000 kPa",0.000943 ± 4e-05 1/K
same,isobaric coefficient of expansion,"298.15 K, 15000 kPa",0.00092 ± 3.9e-05 1/K
same,isobaric coefficient of expansion,"298.15 K, 20000 kPa",0.000899 ± 3.8e-05 1/K
same,isobaric coefficient of expansion,"298.15 K, 25000 kPa",0.000877 ± 3.7e-05 1/K
same,isobaric coefficient of expansion,"298.15 K, 30000 kPa",0.000858 ± 3.6e-05 1/K
same,isobaric coefficient of expansion,"298.15 K, 35000 kPa",0.000843 ± 3.6e-05 1/K
same,isobaric coefficient of expansion,"298.15 K, 40000 kPa",0.000822 ± 3.5e-05 1/K
same,isobaric coefficient of expansion,"298.15 K, 45000 kPa",0.000811 ± 3.4e-05 1/K
same,isobaric coefficient of expansion,"298.15 K, 50000 kPa",0.000795 ± 3.4e-05 1/K
same,isobaric coefficient of expansion,"298.15 K, 55000 kPa",0.000781 ± 3.3e-05 1/K
same,isobaric coefficient of expansion,"308.15 K, 5000 kPa",0.001 ± 4.3e-05 1/K
same,isobaric coefficient of expansion,"308.15 K, 10000 kPa",0.000975 ± 4.1e-05 1/K
same,isobaric coefficient of expansion,"308.15 K, 15000 kPa",0.000948 ± 4e-05 1/K
same,isobaric coefficient of expansion,"308.15 K, 20000 kPa",0.000925 ± 3.9e-05 1/K
same,isobaric coefficient of expansion,"308.15 K, 25000 kPa",0.0009 ± 3.8e-05 1/K
same,isobaric coefficient of expansion,"308.15 K, 30000 kPa",0.000882 ± 3.7e-05 1/K
same,isobaric coefficient of expansion,"308.15 K, 35000 kPa",0.000859 ± 3.6e-05 1/K
same,isobaric coefficient of expansion,"308.15 K, 40000 kPa",0.000844 ± 3.6e-05 1/K
same,isobaric coefficient of expansion,"308.15 K, 45000 kPa",0.000824 ± 3.5e-05 1/K
same,isobaric coefficient of expansion,"308.15 K, 50000 kPa",0.000809 ± 3.4e-05 1/K
same,isobaric coefficient of expansion,"308.15 K, 55000 kPa",0.000794 ± 3.4e-05 1/K
same,isobaric coefficient of expansion,"318.15 K, 5000 kPa",0.00104 ± 4.4e-05 1/K
same,isobaric coefficient of expansion,"318.15 K, 10000 kPa",0.001 ± 4.3e-05 1/K
same,isobaric coefficient of expansion,"318.15 K, 15000 kPa",0.000976 ± 4.1e-05 1/K
same,isobaric coefficient of expansion,"318.15 K, 20000 kPa",0.000947 ± 4e-05 1/K
same,isobaric coefficient of expansion,"318.15 K, 25000 kPa",0.000922 ± 3.9e-05 1/K
same,isobaric coefficient of expansion,"318.15 K, 30000 kPa",0.000899 ± 3.8e-05 1/K
same,isobaric coefficient of expansion,"318.15 K, 35000 kPa",0.00088 ± 3.7e-05 1/K
same,isobaric coefficient of expansion,"318.15 K, 40000 kPa",0.000854 ± 3.6e-05 1/K
same,isobaric coefficient of expansion,"318.15 K, 45000 kPa",0.000839 ± 3.6e-05 1/K
same,isobaric coefficient of expansion,"318.15 K, 50000 kPa",0.000822 ± 3.5e-05 1/K
same,isobaric coefficient of expansion,"318.15 K, 55000 kPa",0.000806 ± 3.4e-05 1/K
same,isobaric coefficient of expansion,"328.15 K, 5000 kPa",0.00107 ± 4.6e-05 1/K
same,isobaric coefficient of expansion,"328.15 K, 10000 kPa",0.00104 ± 4.4e-05 1/K
same,isobaric coefficient of expansion,"328.15 K, 15000 kPa",0.00101 ± 4.3e-05 1/K
same,isobaric coefficient of expansion,"328.15 K, 20000 kPa",0.000975 ± 4.1e-05 1/K
same,isobaric coefficient of expansion,"328.15 K, 25000 kPa",0.00095 ± 4e-05 1/K
same,isobaric coefficient of expansion,"328.15 K, 30000 kPa",0.000923 ± 3.9e-05 1/K
same,isobaric coefficient of expansion,"328.15 K, 35000 kPa",0.000901 ± 3.8e-05 1/K
same,isobaric coefficient of expansion,"328.15 K, 40000 kPa",0.000878 ± 3.7e-05 1/K
same,isobaric coefficient of expansion,"328.15 K, 45000 kPa",0.000858 ± 3.6e-05 1/K
same,isobaric coefficient of expansion,"328.15 K, 50000 kPa",0.000838 ± 3.6e-05 1/K
same,isobaric coefficient of expansion,"328.15 K, 55000 kPa",0.000821 ± 3.5e-05 1/K
same,isobaric coefficient of expansion,"338.15 K, 5000 kPa",0.00111 ± 4.7e-05 1/K
same,isobaric coefficient of expansion,"338.15 K, 10000 kPa",0.00108 ± 4.6e-05 1/K
same,isobaric coefficient of expansion,"338.15 K, 15000 kPa",0.00104 ± 4.4e-05 1/K
same,isobaric coefficient of expansion,"338.15 K, 20000 kPa",0.00101 ± 4.3e-05 1/K
same,isobaric coefficient of expansion,"338.15 K, 25000 kPa",0.000977 ± 4.1e-05 1/K
same,isobaric coefficient of expansion,"338.15 K, 30000 kPa",0.000951 ± 4e-05 1/K
same,isobaric coefficient of expansion,"338.15 K, 35000 kPa",0.000926 ± 3.9e-05 1/K
same,isobaric coefficient of expansion,"338.15 K, 40000 kPa",0.000899 ± 3.8e-05 1/K
same,isobaric coefficient of expansion,"338.15 K, 45000 kPa",0.000881 ± 3.7e-05 1/K
same,isobaric coefficient of expansion,"338.15 K, 50000 kPa",0.000862 ± 3.7e-05 1/K
same,isobaric coefficient of expansion,"338.15 K, 55000 kPa",0.000837 ± 3.6e-05 1/K
same,isobaric coefficient of expansion,"348.15 K, 5000 kPa",0.00116 ± 4.9e-05 1/K
same,isobaric coefficient of expansion,"348.15 K, 10000 kPa",0.00112 ± 4.8e-05 1/K
same,isobaric coefficient of expansion,"348.15 K, 15000 kPa",0.00108 ± 4.6e-05 1/K
same,isobaric coefficient of expansion,"348.15 K, 20000 kPa",0.00105 ± 4.4e-05 1/K
same,isobaric coefficient of expansion,"348.15 K, 25000 kPa",0.00101 ± 4.3e-05 1/K
same,isobaric coefficient of expansion,"348.15 K, 30000 kPa",0.000984 ± 4.2e-05 1/K
same,isobaric coefficient of expansion,"348.15 K, 35000 kPa",0.000958 ± 4.1e-05 1/K
same,isobaric coefficient of expansion,"348.15 K, 40000 kPa",0.000927 ± 3.9e-05 1/K
same,isobaric coefficient of expansion,"348.15 K, 45000 kPa",0.000906 ± 3.8e-05 1/K
same,isobaric coefficient of expansion,"348.15 K, 50000 kPa",0.000885 ± 3.8e-05 1/K
same,isobaric coefficient of expansion,"348.15 K, 55000 kPa",0.000861 ± 3.7e-05 1/K
